Laboratory results reported in US20260028330A1, “HETEROARYL CARBOXAMIDE AND RELATED GPR84 ANTAGONISTS AND USES THEREOF” (LIMINAL BIOSCIENCES LIMITED, priority 2022, published 2026).

Columns and labels:
human GPR84 receptor = molecular target: T1, human GPR84 receptor (Homo sapiens, UniProt Q9NQS5); assay: Gαi biosensor BRET assay in transfected HEK293 cells (antagonism of GPR84 agonist ZQ-16); type: cell-based; settings: 200 nmol/L ZQ-16; for inhibition at 2 µM / inhibition at 10 µM: HEK293, single concentration; for inhibition at 2 µM: code A = 2 μM; for inhibition at 10 µM: code F = 10 μM
T1 construct: host or cells: HEK293 cells, transient transfection
From the text: Background—The following assays can be used for determination of GPR84 activation in living HEK293 cells. The Gαi BRET biosensor (Gagnon et al., 2018; Gales et al., 2006. Nat Struct Mol Biol. 13, 778-86; Saulieres et al., 2012. Nat Chem Biol. 8, 622-30) allows to directly monitor GPR84-mediated activation of Gαi. The Gαi biosensor consists of a Rluc8-tagged Gαi2 subunit, a GFP10-tagged Gγ2 subunit, and an untagged Gβ1. Agonist stimulation and GPR84 activation triggers a physical separation between the RLuc8-Gαi donor and the GFP10-Gγ2 acceptor, resulting in a decrease in BRET signal whose amplitude is correlated to ligand efficacy (Gales et al., 2006). Moreover, signaling functions of GPCRs are tightly regulated by endocytosis, the targeting of receptors to endosomes and their sorting to lysosomes or recycling to the plasma membrane. The early endosomes (EEs) trafficking assay (Namkung et al., 2016. Nat Commun. 7, 12178) uses Rluc8-tagged GPR84 and Renilla GFP (rGFP) attached to the FYVE domain from human endofin/zinc finger FYVE domain-containing protein 16, which binds phosphatidylinositol 3-phosphate in EEs. Agonist stimulation of GPR84-Rluc8 leads to trafficking of the receptor to EEs, and ensuing increase of the donor concentration relative to the rGFP-FYVE acceptor anchored in the same cellular compartment, and thus results in an increase in BRET signal.
Plasmids—The cDNA clones for human GPR84 receptor, human Gαi2, Gβ1, and Gγ2 were obtained from the cDNA Resource Center (www.cdna.org). GFP10 (F64L, S147P, S202F and H231L variant of Aequorea victoria Green Fluorescent Protein) gBlocks gene fragments (Integrated DNA Technologies, IA) and linker were inserted in frame at the N-terminus of human Gγ2. Rluc8 (A55T, C124A, S130A, K136R, A143M, M185V, M253L, and S287L variant of the Renilla reniformis luciferase) gBlocks gene fragment was inserted with linkers in frame in between residues 91 and 92 of Gα2 or at the C-terminus of GPR84. The FYVE domain from human endofin (residues Q739 to K806) attached in frame at the C terminus of a humanized Renilla GFP (rGFP), were synthesized as gBlocks gene fragments.
Bioluminescence Resonance Energy Transfer (BRET) Measurement—HEK293 cells were transfected with GPR84-Rluc8 and rGFP-FYVE for the EEs trafficking biosensor or with GPR84, Gαi2-Rluc8, GFP10-Gγ2, and Gβ1 for the Gαi biosensor. The following day, transiently transfected cells were seeded in 96-well white clear bottom microplates coated with poly-D-lysine and left in culture for 24 hours. Cells were washed once with Tyrode's buffer (140 mmol/L NaCl, 1 mmol/L CaCl2, 2.7 mmol/L KCl, 0.49 mmol/L MgCl2, 0.37 mmol/L NaH2PO4, 5.6 mmol/L glucose, 12 mmol/L NaHCO3, and 25 mmol/L HEPES, pH 7.5) before performing assays in Tyrode's buffer. Test compounds were incubated with cells for 5 (Gui) or 15 (EEs) minutes at 37° C. before addition of 200 nmol/L of the GPR84 agonist ZQ-16 (2-(Hexylthio)-6-hydroxy-4(3H)-pyrimidinone) for 5 minutes at room temperature (Gui) or 30 minutes at 37° C. (EEs). The Rluc8 substrate coelenterazine 400A (Prolume, Lakeside, AZ) was added at a final concentration of 5 μmol/L and BRET readings were collected using an Infinite M1000 microplate reader (Tecan, Morrisville, NC). BRET^2 readings between Rluc8 and GFP10 or rGFP were collected by sequential integration of the signals detected in the 370 to 450 nm (Rluc8) and 510 to 540 nm (GFP10, rGFP) windows. The BRET signal was calculated as the ratio of light emitted by acceptor (GFP10, rGFP) over the light emitted by donor (Rluc8). The values were corrected to net BRET by subtracting the background BRET signal obtained in cells transfected with Rluc8 constructs alone. Ligand-promoted net BRET values were calculated by subtracting vehicle-induced net BRET from ligand-induced net BRET.

[1] = tested on: dextran sodium sulfate-induced chronic inflammatory bowel disease model; settings: once-daily doses of 3 and 10 mg/kg; mouse; cited from earlier work

T1 sequence (Q9NQS5 whole entry): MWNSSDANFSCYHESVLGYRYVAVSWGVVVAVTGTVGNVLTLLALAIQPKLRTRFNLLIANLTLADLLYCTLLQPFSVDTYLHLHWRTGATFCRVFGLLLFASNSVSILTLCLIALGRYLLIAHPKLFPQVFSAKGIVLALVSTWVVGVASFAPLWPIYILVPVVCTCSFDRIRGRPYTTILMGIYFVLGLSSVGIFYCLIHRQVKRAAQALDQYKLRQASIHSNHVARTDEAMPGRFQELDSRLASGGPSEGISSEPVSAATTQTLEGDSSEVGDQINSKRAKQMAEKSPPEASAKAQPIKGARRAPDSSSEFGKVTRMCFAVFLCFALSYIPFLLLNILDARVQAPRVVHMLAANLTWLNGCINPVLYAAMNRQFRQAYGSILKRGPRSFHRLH

| IC50 (human GPR84 receptor) [µM] | SMILES | inhibition at 2 µM (human GPR84 receptor) [%] | inhibition at 10 µM (human GPR84 receptor) [%] | also measured |
| --- | --- | --- | --- | --- |
| ≤ 0.3 | Cc1ccc(C#CC2CC2)cc1N(C(=O)c1cn(CC2OCC3(CC3)CO2)nn1)C(C)C [Compound I-86] | > 75 | – | – |
| – | Cc1ccc(C#CC2CC2)cc1/N=C(\OC(C)C)c1cn(CC2OCC3(CC3)CO2)nn1 [Compound I-87] | – | > 75 | – |
| ≤ 0.3 | CN(C(=O)c1cn(CC2OCC3(CC3)CO2)nn1)c1ccc(C#CC2CC2)cc1Cl [Compound I-94] | > 75 | – | – |
| – | Cc1cc(C#CC2CC2)ccc1N(C)C1(c2cn(CC3OCC4(CC4)CO3)nn2)COC1 [Compound I-95] | – | > 75 | – |
| – | O=C(Nc1cc(C#CC2CC2)ccc1Cl)c1cn(CC2OCC3(CC3)CO2)nn1 [Compound I-96] | – | ≤ 25 | – |
| – | O=C(Nc1cccc(C#CC2CC2)c1)c1cn(CC2OCC3(CC3)CO2)nn1 [Compound I-97] | – | ≤ 25 | – |
| – | COc1cc(C#CC2CC2)cc(NC(=O)c2cn(CC3OCC4(CC4)CO3)nn2)c1 [Compound I-98] | – | ≤ 25 | – |
| – | COc1cc(C#CC2CC2)cc(N(C)C(=O)c2cn(CC3OCC4(CC4)CO3)nn2)c1 [Compound I-99] | – | 25 to 50 | – |
| ≤ 0.3 | Cc1cc(F)c(C#CC2CC2)cc1N(C)C(=O)c1cn(CC2OCC3(CC3)CO2)nn1 [Compound I-100] | > 75 | – | – |
| – | Cc1cc(F)c(C#CC2CC2)cc1NC(=O)c1cn(CC2OCC3(CC3)CO2)nn1 [Compound I-101] | – | ≤ 25 | – |
| – | CN(C)c1ccc(C#CC2CC2)cc1NC(=O)c1cn(CC2OCC3(CC3)CO2)nn1 [Compound I-102] | – | ≤ 25 | – |
| – | CCc1ccc(C#CC2CC2)cc1NC(=O)c1cn(CC2OCC3(CC3)CO2)nn1 [Compound I-103] | – | ≤ 25 | – |
| 0.3 to 1 | CCc1ccc(C#CC2CC2)cc1N(C)C(=O)c1cn(CC2OCC3(CC3)CO2)nn1 [Compound I-104] | – | > 75 | – |
| 0.3 to 1 | Cc1cc(C#CC2CC2)ccc1N(C)C(=O)c1cnn(CC2OCC3(CC3)CO2)c1 [Compound I-105] | – | > 75 | – |
| – | O=c1nc(OC[C@@H]2COCCO2)cc2n1CCc1cc(C#CC3CC3)ccc1-2 [GLPG1205] | – | – | disease activity index score [1]: reduced; neutrophil infiltration [1]: reduced |

| SMILES | IC50 (human GPR84 receptor) [µM] | inhibition at 2 µM (human GPR84 receptor) [%] | inhibition at 10 µM (human GPR84 receptor) [%] | also measured |
| --- | --- | --- | --- | --- |
| O=C(c1cn(CC2OCC3(CC3)CO2)nn1)N(c1cc(C#CC2CC2)ccc1F)C1CC1 [Compound I-90] | ≤ 0.3 | – | > 75 | – |
| O=C(c1cn(CC2OCC3(CC3)CO2)nn1)N(c1ccc(C#CC2CC2)cc1F)C1CC1 [Compound I-91] | ≤ 0.3 | > 75 | – | – |
| O=C(c1cn(CC2OCC3(CC3)CO2)nn1)N(c1cc(C#CC2CC2)ccc1Br)C1CC1 [Compound I-92] | 0.3 to 1 | > 75 | – | – |
| O=C(c1cn(CC2OCC3(CC3)CO2)nn1)N(c1ccc(C#CC2CC2)cc1Br)C1CC1 [Compound I-93] | ≤ 0.3 | > 75 | – | – |
